Results published in patent US9060541B2, “Sterilizer for foods” (Kawakami Co., Ltd., priority 2009, dated 2015).

How the values were obtained:
general viable bacteria = assay: Hand sterilization test (Sterilization Test 2); conditions: 1.4 ml sprayed on washed and dried hand; swab sample 1 minute later; cultured 48 hours at 37° C.
[1] = test system: Campylobacter jejuni subsp. Jejuni JCM2013; assay: Sterilization test on beef (yukhoe; raw beef); format: cell-based; conditions: sprayed and mixed into inoculated beef; 24 hours after storage at 10° C.
[2] = test system: Escherichia coli O-157 (enterohemorrhagic Escherichia coli O157: H7 EDL 933); assay: Cutting board sterilization test; format: cell-based; conditions: 0.7 ml sprayed on contaminated cutting board; swab sample 1 minute later; cultured 24 hours at 37° C.
[3] = test system: Staphylococcus aureus (209P); assay: Sterilization effect determination test (Fujimoto's modified method of the Kelsey-Sykes method); format: cell-based; design: key: D: There is no sterilization effect.; C: There is a sterilization effect in step (1) but no sterilization effect in step (2).; B: There is a sterilization effect up to step (2) but no sterilization effect in step (3).; A: There is a sterilization effect up to step (3); conditions: water remainder
Escherichia coli (NIHJ) = assay: as above; format: cell-based; design: key: D: There is no sterilization effect.; C: There is a sterilization effect in step (1) but no sterilization effect in step (2).; B: There is a sterilization effect up to step (2) but no sterilization effect in step (3).; A: There is a sterilization effect up to step (3); conditions: water remainder
[4] = Table 2, compositions of calcinated calcium and ethanol, 20° C., steps (1)-(3)
[5] = Table 1, compositions of calcinated calcium and ethanol, 20° C., steps (1)-(3)
[6] = Table 4, compositions with sodium lactate blended
[7] = Table 3, compositions with sodium lactate blended

Compound: CCO [70% ethanol, ethanol]
- Hand sterilization results (general viable bacteria count) (general viable bacteria): 6.2 × 10^3
- viable bacteria count [1]: 10^5 to 10^6
- Cutting board microbe eradication results (general viable bacteria count) [2]: 2.8 × 10^4

Compound: CCO [Ethanol 5 wt %, ethanol]
- Sterilization effect [3, 4]: D
- Sterilization effect (Escherichia coli (NIHJ); [5]): D

Compound: CCO [Ethanol 10 wt %, ethanol]
- Sterilization effect [3, 4]: D
- Sterilization effect (Escherichia coli (NIHJ); [5]): D

Compound: CCO [Ethanol 20 wt %, ethanol]
- Sterilization effect [3, 4]: D
- Sterilization effect (Escherichia coli (NIHJ); [5]): D

Compound: CCO [Ethanol 50 wt %, ethanol]
- Sterilization effect [3, 4]: D
- Sterilization effect (Escherichia coli (NIHJ); [5]): B

Compound: CCO [Ethanol 75 wt %, ethanol]
- Sterilization effect [3, 4]: B
- Sterilization effect (Escherichia coli (NIHJ); [5]): B

Compound: CCO [Ethanol 100 wt %, ethanol]
- Sterilization effect [3, 4]: A
- Sterilization effect (Escherichia coli (NIHJ); [5]): A

Compound: CC(O)C(=O)[O-].[Na+] (stereo not shown) [Sodium lactate 1.5 wt %, sodium lactate]
- Sterilization effect [3, 6]: D
- Sterilization effect (Escherichia coli (NIHJ); [7]): D

Compound: CC(O)C(=O)[O-].[Na+] (stereo not shown) [Sodium lactate 3 wt %, sodium lactate]
- Sterilization effect [3, 6]: D
- Sterilization effect (Escherichia coli (NIHJ); [7]): D

Compound: CC(O)C(=O)[O-].[Na+] (stereo not shown) [Sodium lactate 4.5 wt %, sodium lactate]
- Sterilization effect [3, 6]: D
- Sterilization effect (Escherichia coli (NIHJ); [7]): D

Compound: CC(O)C(=O)[O-].[Na+] (stereo not shown) [Sodium lactate 6 wt %, sodium lactate]
- Sterilization effect [3, 6]: D
- Sterilization effect (Escherichia coli (NIHJ); [7]): D

Compound: CC(O)C(=O)[O-].[Na+] (stereo not shown) [Sodium lactate 9 wt %, sodium lactate]
- Sterilization effect [3, 6]: D
- Sterilization effect (Escherichia coli (NIHJ); [7]): no sterilization effect whatsoever and D
